Measurements: patent US10160755B2 (Plexxikon Inc., priority 2015, dated 2018)

Experiments:
[1] = molecular target: c-Kit (Homo sapiens, UniProt P10721); assay: c-Kit biochemical assay (per US 2007/0032519)
Experimental: The following Table 2 provides data indicating FLT3 ITD, FLT3 D835Y, and KIT biochemical activity, and BaF3 FLT3 ITD/F69L cellular inhibitory activity for exemplary compounds described in this disclosure. In the table below, activity is provided as follows: +++=0.0001<IC50<1 μM; ++=1 μM<IC50<10 μM, +=10 μM<IC50<200 μM. Assays for the biochemical activity of c-Kit and FMS were conducted according to those assays described in US Patent Application Publication number US 2007/0032519, the disclosure of which is hereby incorporated by reference in its entirety.

[2] = molecular target: T1, FLT3-ITD (Homo sapiens, UniProt P36888); assay: FLT3-ITD biochemical kinase assay (AlphaScreen)
T1 construct: FLT3-ITD; Invitrogen #PV6190
T1 sequence (P36888 1-993): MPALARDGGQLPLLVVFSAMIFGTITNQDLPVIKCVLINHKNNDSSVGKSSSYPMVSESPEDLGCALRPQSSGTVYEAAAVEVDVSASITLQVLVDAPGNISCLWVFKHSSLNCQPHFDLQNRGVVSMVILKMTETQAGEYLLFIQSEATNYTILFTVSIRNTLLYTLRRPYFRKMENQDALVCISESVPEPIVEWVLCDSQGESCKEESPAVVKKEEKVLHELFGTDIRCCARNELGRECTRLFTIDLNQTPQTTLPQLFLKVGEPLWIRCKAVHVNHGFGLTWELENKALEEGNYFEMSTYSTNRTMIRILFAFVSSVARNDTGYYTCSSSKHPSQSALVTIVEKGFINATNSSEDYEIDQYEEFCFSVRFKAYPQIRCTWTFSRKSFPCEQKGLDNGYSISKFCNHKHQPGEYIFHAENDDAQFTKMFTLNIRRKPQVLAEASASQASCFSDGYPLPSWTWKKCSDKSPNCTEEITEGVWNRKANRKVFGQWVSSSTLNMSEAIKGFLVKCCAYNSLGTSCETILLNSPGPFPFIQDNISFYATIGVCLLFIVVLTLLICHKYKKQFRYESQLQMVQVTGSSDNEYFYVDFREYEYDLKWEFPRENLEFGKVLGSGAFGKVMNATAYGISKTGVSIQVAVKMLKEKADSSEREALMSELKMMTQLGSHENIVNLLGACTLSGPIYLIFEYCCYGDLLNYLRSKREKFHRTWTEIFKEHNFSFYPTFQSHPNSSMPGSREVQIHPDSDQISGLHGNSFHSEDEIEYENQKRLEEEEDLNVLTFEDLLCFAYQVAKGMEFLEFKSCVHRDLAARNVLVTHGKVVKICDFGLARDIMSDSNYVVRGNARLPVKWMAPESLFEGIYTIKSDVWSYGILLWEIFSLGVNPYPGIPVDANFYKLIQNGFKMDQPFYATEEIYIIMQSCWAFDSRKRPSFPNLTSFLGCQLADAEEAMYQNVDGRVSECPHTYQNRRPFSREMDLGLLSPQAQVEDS
In short: (§1)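 IC50 values reflect loss of AlphaScreen proximity signal (excitation 680 nm, emission 580 nm) from tyrosine phosphorylation of a biotinylated poly(Glu4-Tyr) substrate at 30 nM. ATP was 10 μM for the D835Y mutant and 100 μM for ITD. Detection used PY20 acceptor beads.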

[3] = molecular target: T2, FLT3-D835Y (Homo sapiens, UniProt P36888, D835Y); assay: FLT3-D835Y biochemical kinase assay (AlphaScreen)
T2 construct: purchased Invitrogen PV3967
T2 sequence (P36888 27-993 D835Y): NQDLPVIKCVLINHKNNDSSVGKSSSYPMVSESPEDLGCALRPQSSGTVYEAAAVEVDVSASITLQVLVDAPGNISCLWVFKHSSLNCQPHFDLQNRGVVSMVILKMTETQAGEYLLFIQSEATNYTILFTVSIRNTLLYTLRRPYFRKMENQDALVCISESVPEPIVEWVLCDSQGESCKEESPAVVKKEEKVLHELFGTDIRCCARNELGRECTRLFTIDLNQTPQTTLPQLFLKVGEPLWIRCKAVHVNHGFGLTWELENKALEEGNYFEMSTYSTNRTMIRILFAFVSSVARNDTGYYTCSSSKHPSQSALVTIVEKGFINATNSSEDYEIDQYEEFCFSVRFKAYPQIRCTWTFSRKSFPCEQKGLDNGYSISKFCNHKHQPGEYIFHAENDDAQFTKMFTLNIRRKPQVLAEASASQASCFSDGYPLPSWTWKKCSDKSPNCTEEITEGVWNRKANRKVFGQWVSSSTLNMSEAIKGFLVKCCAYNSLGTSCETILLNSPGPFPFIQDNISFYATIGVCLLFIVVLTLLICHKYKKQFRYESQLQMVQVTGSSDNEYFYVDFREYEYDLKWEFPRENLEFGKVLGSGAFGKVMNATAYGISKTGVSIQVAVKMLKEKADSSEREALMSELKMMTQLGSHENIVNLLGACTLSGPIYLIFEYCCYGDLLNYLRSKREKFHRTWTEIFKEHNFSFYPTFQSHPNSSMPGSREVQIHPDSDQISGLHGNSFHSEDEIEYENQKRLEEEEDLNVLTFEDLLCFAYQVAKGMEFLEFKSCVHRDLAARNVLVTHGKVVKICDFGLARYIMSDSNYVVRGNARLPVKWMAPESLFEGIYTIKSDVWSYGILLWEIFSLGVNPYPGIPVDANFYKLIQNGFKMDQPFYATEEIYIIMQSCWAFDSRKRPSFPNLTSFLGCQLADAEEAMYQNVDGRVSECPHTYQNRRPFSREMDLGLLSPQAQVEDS
In short: as §1

Chain of c-Kit (P10721 26-976): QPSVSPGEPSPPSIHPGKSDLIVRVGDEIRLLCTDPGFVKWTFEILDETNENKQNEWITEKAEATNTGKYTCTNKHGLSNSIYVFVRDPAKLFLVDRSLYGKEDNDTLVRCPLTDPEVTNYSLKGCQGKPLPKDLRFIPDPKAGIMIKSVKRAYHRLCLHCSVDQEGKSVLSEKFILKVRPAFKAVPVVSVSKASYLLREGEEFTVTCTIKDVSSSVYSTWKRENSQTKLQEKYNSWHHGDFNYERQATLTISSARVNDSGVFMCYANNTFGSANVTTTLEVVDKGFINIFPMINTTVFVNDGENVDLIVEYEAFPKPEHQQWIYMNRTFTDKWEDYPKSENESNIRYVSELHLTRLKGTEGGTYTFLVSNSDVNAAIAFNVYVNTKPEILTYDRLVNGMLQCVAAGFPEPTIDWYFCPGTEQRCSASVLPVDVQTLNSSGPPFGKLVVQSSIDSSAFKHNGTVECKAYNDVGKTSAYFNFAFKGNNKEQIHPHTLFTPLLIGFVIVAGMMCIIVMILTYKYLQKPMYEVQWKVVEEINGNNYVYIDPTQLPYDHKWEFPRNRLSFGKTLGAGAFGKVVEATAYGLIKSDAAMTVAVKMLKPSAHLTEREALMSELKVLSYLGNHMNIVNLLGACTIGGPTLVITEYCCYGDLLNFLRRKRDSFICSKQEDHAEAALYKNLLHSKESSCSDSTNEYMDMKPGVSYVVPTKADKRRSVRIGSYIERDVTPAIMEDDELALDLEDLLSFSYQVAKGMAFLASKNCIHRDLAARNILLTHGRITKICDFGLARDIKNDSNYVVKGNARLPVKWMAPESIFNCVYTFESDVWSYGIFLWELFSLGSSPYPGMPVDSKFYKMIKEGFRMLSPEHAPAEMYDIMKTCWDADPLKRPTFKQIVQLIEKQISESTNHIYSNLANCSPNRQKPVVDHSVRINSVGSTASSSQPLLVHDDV

An IC50 [1] of 1 to 10 µM, an IC50 [2] of 0.0001 to 1 µM and an IC50 [3] of 0.0001 to 1 µM were found for `Clc1cnc2[nH]cc(-c3ccc4nc[nH]c4c3)c2c1` [P-035, 3-(3H-benzimidazol-5-yl)-5-chloro-1H-pyrrolo[2,3-b]pyridine] in this work.

An IC50 [1] of 10 to 200 µM, an IC50 [2] of 0.0001 to 1 µM and an IC50 [3] of 0.0001 to 1 µM were found for `Cn1cnc2ccc(-c3c[nH]c4ncc(C#N)cc34)cc21` [P-020, 3-(3-methylbenzimidazol-5-yl)-1H-pyrrolo[2,3-b]pyridine-5-carbonitrile] in this work.

An IC50 [1] of 10 to 200 µM, an IC50 [2] of 0.0001 to 1 µM and an IC50 [3] of 0.0001 to 1 µM were found for `COc1cnc2[nH]cc(-c3ccc4[nH]nnc4c3)c2c1` [P-014, 5-(5-methoxy-1H-pyrrolo[2,3-b]pyridin-3-yl)-1H-benzotriazole] in this work.

An IC50 [1] of 10 to 200 µM, an IC50 [2] of 0.0001 to 1 µM and an IC50 [3] of 0.0001 to 1 µM were found for `CS(=O)(=O)Nc1cccc(-c2cnc3[nH]cc(-c4ccc5c(c4)N(CC(F)(F)F)CCO5)c3n2)c1` [P-087, N-[3-[7-[4-(2,2,2-trifluoroethyl)-2,3-dihydro-1,4-benzoxazin-6-yl]-5H-pyrrolo[2,3-b]pyrazin-2-yl]phenyl]methanesulfonamide] in this work.

An IC50 [1] of 10 to 200 µM, an IC50 [2] of 1 to 10 µM and an IC50 [3] of 1 to 10 µM were found for `Nc1nc2cc(-c3c[nH]c4ncccc34)ccc2[nH]1` [P-010, 5-(1H-pyrrolo[2,3-b]pyridin-3-yl)-1H-benzimidazol-2-amine] in this work.

An IC50 [1] of 1 to 10 µM, an IC50 [2] of 1 to 10 µM and an IC50 [3] of 0.0001 to 1 µM were found for `c1cnc2[nH]cc(-c3ccc4[nH]cnc4c3)c2c1` [P-004, 3-(1H-benzimidazol-5-yl)-1H-pyrrolo[2,3-b]pyridine] in this work.

An IC50 [1] of 10 to 200 µM and an IC50 [3] of 0.0001 to 1 µM were found for `CNS(=O)(=O)c1ccc(-c2cnc3[nH]cc(-c4ccc5ncsc5c4)c3n2)cc1` [P-078, 4-[7-(1,3-benzothiazol-6-yl)-5H-pyrrolo[2,3-b]pyrazin-2-yl]-N-methyl-benzenesulfonamide] in this work.

An IC50 [1] of 1 to 10 µM and an IC50 [3] of 0.0001 to 1 µM were found for `COc1ccc(-c2cnc3[nH]cc(-c4ccc5ncsc5c4)c3n2)cn1` [P-077, 6-[2-(6-methoxy-3-pyridyl)-5H-pyrrolo[2,3-b]pyrazin-7-yl]-1,3-benzothiazole] in this work.

An IC50 [1] of 10 to 200 µM and an IC50 [2] of 0.0001 to 1 µM were found for `CC(C)(C)n1cnc2ccc(-c3c[nH]c4ncc(-c5cnc(Cl)nc5)nc34)cc21` [P-389, 7-(3-tert-butylbenzimidazol-5-yl)-2-(2-chloropyrimidin-5-yl)-5H-pyrrolo[2,3-b]pyrazine] in this work.

An IC50 [1] of 10 to 200 µM and an IC50 [3] of 0.0001 to 1 µM were found for `COc1cnc2[nH]cc(-c3ccc4ncn(C5CCNC5)c4c3)c2c1` (stereo not drawn) [P-067, 5-methoxy-3-(3-pyrrolidin-3-ylbenzimidazol-5-yl)-1H-pyrrolo[2,3-b]pyridine] in this work.

An IC50 [1] of 1 to 10 µM and an IC50 [3] of 0.0001 to 1 µM were found for `COc1cnc2[nH]cc(-c3ccc4ncn(Cc5ccccc5)c4c3)c2c1` [P-073, 1-benzyl-6-(5-methoxy-1H-pyrrolo[2,3-b]pyridin-3-yl)benzimidazole] in this work.

An IC50 [1] of 10 to 200 µM and an IC50 [3] of 0.0001 to 1 µM were found for `COc1cc(-c2cnc3[nH]cc(-c4ccc5ncsc5c4)c3n2)ccn1` [P-075, 6-[2-(2-methoxy-4-pyridyl)-5H-pyrrolo[2,3-b]pyrazin-7-yl]-1,3-benzothiazole] in this work.
